Results as given in paper PMC8999917, “Structure–Activity Relationship of Synthetic Ginkgolic Acid Analogs for Treating Type 2 Diabetes by PTPN9 Inhibition” (International Journal of Molecular Sciences, 2022).

Key:
Format in all cases: cell-based, mouse
C2C12 myotubes = assay: 2-NBDG glucose uptake assay in C2C12 myotubes; settings: 10 µM, plate reader fluorescence
Description: (§1) PTPN9 inhibitors have been reported to increase glucose uptake. To clarify the antidiabetic effects of GA analogs, a 2-NBDG (a fluorescent glucose probe) uptake assay was performed using differentiated 3T3-L1 adipocytes and C2C12 myotubes. After 16 h of starvation, differentiated 3T3-L1 adipocytes were incubated with compounds 1e and 1f for another 1 h. The cells were subsequently incubated with 2-NBDG for 30 min and washed with PBS before quantifying the fluorescence of 2-NBDG taken up by the cells. The 2-NBDG uptake-increasing effects of GA and its analogs in 3T3-L1 cells were monitored via confocal microscopy. The blank group was set in the absence of 2-NBDG but was treated with DMSO to determine the basal fluorescence levels in 3T3-L1 adipocytes (Figure 4A, Basal); in the negative control group, 3T3-L1 adipocytes were treated with 2-NBDG and DMSO for the evaluation of basal glucose uptake levels (Figure 4A, DMSO). […] Furthermore, to quantify 2-NBDG uptake, fluorescence intensity (Ex/Em = 485/535 nm) was measured using a plate reader. […] After incubation, the cells were washed with pre-cold PBS, and the fluorescence intensity was measured using a fluorescence microplate reader (Victor^TM X4, PerkinElmer, Waltham, MA, USA) (Ex/Em = 485/535 nm). […]

3T3-L1 adipocytes = assay: 2-NBDG glucose uptake assay in differentiated 3T3-L1 adipocytes; settings: 10 µM, plate reader fluorescence
Description: as §1

Akt phosphorylation = assay: Western blot of Akt phosphorylation in C2C12 myotubes
Description: To further investigate the mechanism of action of 1e, we evaluated its effects on AMPK and AKT phosphorylation in C2C12 myotubes. […] In line with the results obtained in 3T3-L1 cells, in the absence of insulin, 1e had no effects on basal p-Akt expression levels (Figure 6A). Since insulin plays an important role in regulating glucose metabolism through the redistribution of GLUT4 from intracellular vesicles to the cell surface, it is important to describe the interaction between 1e and insulin in the Akt pathway. […] Next, we evaluated the protective effects of 1e against PA-induced insulin resistance in C2C12 myotubes. To generate an insulin resistance model, C2C12 myotubes were treated with 250 µM PA in a serum-free medium for 16 h. Akt phosphorylation levels in PA-treated C2C12 cells decreased by 50% compared to levels in normal C2C12 cells (Figure 6C). Furthermore, in the presence of insulin and GA, Akt phosphorylation levels decreased only by 30% compared to levels in normal cells. […] The expression levels of glucose uptake-related proteins were determined via Western blotting, as previously described. […] Secondary antibodies were added to the membranes at a concentration of 1:2000 for 1 h at room temperature, and immunoreactive bands were detected via ECL (GE Healthcare Korea Co., Ltd., Incheon, Korea). […]

CCCCCCCCCCCCCOc1cccc(O)c1C(=O)O [Compound 1e]
2-NBDG uptake increase compared to the DMSO control (C2C12 myotubes): ~1.4 fold | 2-NBDG uptake increase compared to the DMSO control (3T3-L1 adipocytes): approximately 2.0 fold | Akt phosphorylation on co-treatment with insulin (Akt phosphorylation; 100 nM insulin): synergistic Akt phosphorylation-improving effects with insulin | basal p-Akt expression levels (Akt phosphorylation; absence of insulin): no effects
